From patent US12479843B2, “Spiro ring-containing quinazoline compounds” (WIGEN BIOMEDICINE TECHNOLOGY (SHANGHAI) CO., LTD., priority 2019, dated 2025)
Read-outs that look alike come from different tables or passages of the source.

Key:
pERK level in H358 cells = experiment: pERK and ERK protein content assay in H358 cells (ELISA); assay type: cell-based; details: 24 h, pERK/ERK ratio compared with DMSO group; for Inhibition rate (%) of pERK level: compound 1 μM; for inhibition at 1 µM: Homo sapiens, NCI-H358, compound 1 μM, read-out: Inhibition rate (%) of pERK level
Procedure, shortened: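 Percent inhibition of pERK relative to DMSO, from the ELISA pERK/ERK ratio in lysed H358 cells. Compound applied at 1 μM for 24 h after one day of growth.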

H358 cells = experiment: Antiproliferative activity against H358 cells (Cell Titer Glow, ultra-low attachment plate); assay type: cell-based; details: three days after addition of compound
Procedure: 2500 H358 cells were seeded in a 96-well ultra-low attachment plate (corning, 7007). After one day of growth, a serially diluted compound (a maximum concentration of 5 μM, 5-fold dilution, a total of five doses) was added. Three days after the addition of the compound, Cell Titer Glow (Promega, G9681) was added to evaluate pellet growth, and the IC50 value was calculated.

[1] = Pharmacokinetic evaluation in mice; assay type: in vivo, male ICR mice; details: for F: po 10 mg/kg vs iv 2 mg/kg; for Vd: read-out: Vss
Procedure: The compounds were administered by intravenous injection at a dose of 2 mg/kg and oral gavage at a dose of 10 mg/kg (0.5% CMC-Na suspension). 15 male ICR mice were selected for each group, and each mouse was subjected to blood collection at 3 discrete time points, with 3 mice per time point. The time points of sampling were as follows: before the administration, and at 5 min, 15 min, 30 min, 1 h, 3 h, 5 h, 8 h, 12 h and 24 h after the administration. 80 μL of blood was collected from the eye sockets or the hearts of the mice at each of the time points after the administration. All whole blood samples were collected in tubes containing EDTA K2 and centrifuged (1500-1600 rmp) at 4° C. for 10 min to isolate plasma, which was then stored in a refrigerator at −90 to −60° C. for sample analysis. The compound concentration in the plasma was determined by liquid chromatography-tandem mass spectrometry, and the corresponding pharmacokinetic parameters were obtained according to a plasma concentration-time curve.

[2] = system: Human pancreatic cancer Mia PaCa-2 cells; experiment: Antitumor activity on graft tumors of human pancreatic cancer Mia PaCa-2 in nude mice; assay type: in vivo; details: Mia PaCa-2 graft tumors in nude mice, 10 mg/kg intragastric, qd*21
Procedure: Human pancreatic cancer Mia PaCa-2 cells were cultured conventionally in 1640 medium containing 10% fetal bovine serum in a 37° C./5% CO2 incubator. After passage, the cells were collected when they reached the desired amount. 1×10^7 Mia PaCa-2 cells were injected into the left dorsal side of each nude mouse, and the animals were randomly grouped for administration after tumors grew to 150 mm3. The groups are as follows: 1) a solvent control group of 8 mice; and 2) compound 1 group, compound 2 group, compound 5 group, compound 31 group, compound 131 group, compound 142 group, compound 171 group, compound B group and compound C group, with 8 mice per group. Mice in the solvent control group were subjected to intragastric administration of 0.5% CMC-Na once daily; mice in compound 1 group, compound 2 group, compound 5 group, compound 31 group, compound 131 group, compound 142 group, compound 171 group, compound B group and compound C group were subjected to intragastric administration of a suspension of a compound in 0.5% CMC-Na once daily. On Tuesday and Thursday each week, tumor volumes and body weight of the mice were measured, and the nude mice were sacrificed on day 21 of administration.

[3] = system: phosphorylated ERK (pERK) level in H358 cells; experiment: pERK level assay by western blot in H358 cells; assay type: cell-based; details: overnight incubation, same concentration, FIG. 1
Procedure: H358 cells were plated on to a 24-well plate at 2×10^5 cells/well. Serially diluted compounds including AMG510, MRTX849, compound 142 and compound 171 were added. After overnight incubation, cells were lysed, and proteins were quantified and subjected to gel electrophoresis.

[4] = 96-well ultra-low attachment plate, Cell Titer Glow
[5] = po, 10 mg/kg, 0.5% CMC-Na suspension
[6] = Homo sapiens, NCI-H358, 72 h, 96-well ultra-low attachment plate, Cell Titer Glow
[7] = male, ICR, mouse, plasma, iv, 2 mg/kg
[8] = male, ICR, mouse, plasma, iv, 2 mg/kg, read-out: Cmax
[9] = male, ICR, mouse, plasma, iv, 2 mg/kg, read-out: Tmax
[10] = male, ICR, mouse, plasma, po, 10 mg/kg, 0.5% CMC-Na suspension
[11] = male, ICR, mouse, plasma, po, 10 mg/kg, 0.5% CMC-Na suspension, read-out: Cmax
[12] = male, ICR, mouse, plasma, po, 10 mg/kg, 0.5% CMC-Na suspension, read-out: Tmax

Row | Compound | Inhibition rate (%) of pERK level (pERK level in H358 cells) | IC50 (H358 cells; [4]) [nM] | Cl ([1]; iv, 2 mg/kg) [mL/min/kg] | Cmax ([1]; iv, 2 mg/kg) [ng/mL] | Tmax ([1]; iv, 2 mg/kg) [h] | F [1] [%] | Anti-tumor effect (regression) [2] [% regression] | inhibition at 1 µM (pERK level in H358 cells) [%] | IC50 (H358 cells; [6]) [nM] | IC50 (H358 cells; Homo sapiens, NCI-H358, 72 h) [nM] | AUC(0-t) [1, 7] [ng·h/mL] | clearance [1, 7] [mL/min/kg] | half-life [1, 7] [h] | Cmax [1, 8] [ng/mL] | Tmax [1, 9] [h] | Vd [1, 7] [L/kg] | AUC(0-t) [1, 10] [ng·h/mL] | half-life [1, 10] [h] | Cmax [1, 11] [ng/mL] | Tmax [1, 12] [h] | other results
1 | C=C(F)C(=O)N1CC2(CCN(c3nc(OC4CCN(CCOC)CC4)nc4c(OCC(F)(F)F)c(-c5c(C)ccc6[nH]ncc56)c(C5CC5)cc34)CC2)C1 [Compound 1] | +++ (+++ indicates an inhibition rate greater than 90%.) | < 300 | 2.33 | 2557 | 1 | 29.0 | 39 |  |  |  |  |  |  |  |  |  |  |  |  |  | Vss ([1]; iv, 2 mg/kg): 0.782 L/kg; t1/2 ([1]; iv, 2 mg/kg): 4.31 h; Cmax [1, 5]: 1543 ng/mL; Tmax [1, 5]: 4 h; t1/2 [1, 5]: 6.94 h
2 | C=CC(=O)N1CC2(CCN(c3nc(OC4CC5(CCN(CCOC)CC5)C4)nc4c(OCC(F)(F)F)c(-c5c(C)ccc6[nH]ncc56)c(C5CC5)cc34)CC2)C1 [Compound 131] |  |  |  |  |  | 39.4 | 37 | > 90 | < 300 | 1.5 | 11300 | 1.87 | 4.12 | 2350 | 0.5 | 2.1 | 22300 | 5.86 | 1820 | 2 | 
3 | C=CC(=O)N1CC2(CCN(c3nc(N4CC(N5CCC5)C4)nc4c(OCC(F)(F)F)c(-c5c(C)ccc6[nH]ncc56)c(C5CC5)cc34)CC2)C1 [Compound 142] |  |  |  |  |  | 17.7 | 35 | > 90 | < 300 | 2.5 | 52000 | 0.642 | 3.31 | 13100 | 0.083 | 0.187 | 46000 | 3.89 | 6730 | 2 | inhibition of the phosphorylated ERK (pERK) level in cells compared with AMG510 and MRTX849 [3]: stronger inhibition
4 | C=CC(=O)N1CC2(CCN(c3nc(N4CC(N5CCCC5)C4)nc4c(OCC(F)(F)F)c(-c5c(C)ccc6[nH]ncc56)c(C5CC5)cc34)CC2)C1 [Compound 171] |  |  |  |  |  | 26.9 | 38 | > 90 | < 300 | 1.4 | 26500 | 1.26 | 4.85 | 4910 | 0.083 | 0.505 | 35700 | 3.93 | 3320 | 2 | 
5 | C=CC(=O)N1CC2(CCN(c3nc(N4CC(N(C)C)C4)nc4c(OCC(F)(F)F)c(-c5c(C)ccc6[nH]ncc56)c(C=C)cc34)CC2)C1 [Compound C, reference compound] | +++ (+++ indicates an inhibition rate greater than 90%.) | < 300 | 1.65 | 3210 | 0.083 | 24.6 | 8 |  |  |  |  |  |  |  |  |  |  |  |  |  | IC50 (H358 cells): 5.1 nM; Vss ([1]; iv, 2 mg/kg): 0.481 L/kg; t1/2 ([1]; iv, 2 mg/kg): 4.02 h; Cmax [1, 5]: 3110 ng/mL; Tmax [1, 5]: 0.5 h; t1/2 [1, 5]: 3.38 h
